These compounds were tested against T1, mADAM-10 or hADAM-10 (UniProt O14672) (assay: ADAM-10 enzyme assay (fluorogenic peptide cleavage);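 further: fluorescence from cleavage of a quenched 10-residue DABCYL/EDANS peptide by 5 nM enzyme in HEPES pH 8.0 buffer, 16 hr at room temperature, compounds serially diluted 100 µM to 0.5 nM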).
T1 sequence (O14672 1-748): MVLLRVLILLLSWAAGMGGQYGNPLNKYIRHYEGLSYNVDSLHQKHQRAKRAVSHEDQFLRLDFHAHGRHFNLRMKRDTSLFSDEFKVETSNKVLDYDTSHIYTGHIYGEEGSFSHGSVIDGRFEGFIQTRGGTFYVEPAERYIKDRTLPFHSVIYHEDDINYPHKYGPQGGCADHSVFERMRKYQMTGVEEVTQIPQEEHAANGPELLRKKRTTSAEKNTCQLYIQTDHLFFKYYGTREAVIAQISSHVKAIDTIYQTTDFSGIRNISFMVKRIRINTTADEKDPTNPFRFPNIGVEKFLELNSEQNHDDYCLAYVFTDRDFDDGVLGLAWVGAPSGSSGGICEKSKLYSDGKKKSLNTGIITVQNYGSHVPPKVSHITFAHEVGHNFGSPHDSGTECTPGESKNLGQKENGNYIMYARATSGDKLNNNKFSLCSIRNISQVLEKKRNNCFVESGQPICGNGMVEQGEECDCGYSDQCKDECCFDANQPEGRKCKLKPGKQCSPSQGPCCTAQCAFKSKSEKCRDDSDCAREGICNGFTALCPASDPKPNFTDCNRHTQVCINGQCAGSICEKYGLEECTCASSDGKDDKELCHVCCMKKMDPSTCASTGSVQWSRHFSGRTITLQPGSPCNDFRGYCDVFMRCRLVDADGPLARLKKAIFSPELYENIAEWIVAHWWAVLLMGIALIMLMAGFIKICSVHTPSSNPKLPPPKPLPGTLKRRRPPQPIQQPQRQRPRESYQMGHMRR
Format: biochemical
Description: mADAM-10 or hADAM-10 activity was measured as the ability to cleave a 10-residue peptide (DABCYL-Leu-Leu-Ala-Gln-Lys-*-Leu-Arg-Ser-Ser-Arg-EDANS). […] Enzyme was diluted to a final active concentration of 5 nM in Buffer A (50 mM HEPES 8.0, 100 mM NaCl, 1 mM CaCl2 and 0.01% NP-40). Serial dilutions for compounds were performed ranging from 100 μM to 0.5 nM using a Beckman Biomek 2000 in polypropylene plates (Greiner). […] This reaction was incubated for 16 hr at RT and fluorescence was read using identical conditions.

N#Cc1ccc(Oc2ccc(S(=O)(=O)N3CCN(C(=O)N4CCOCC4)C[C@@H]3C(=O)NO)cc2F)cc1 [Entry 7] and O=C(NO)[C@H]1CN(C(=O)N2CCOCC2)CCN1S(=O)(=O)c1ccc(Oc2ccc(F)cc2)c(F)c1 [Entry 8] cannot be ordered by IC50: < 50 nM for the first, < 50 nM for the second.

CC(C)(C)OC(=O)N1CCN(S(=O)(=O)c2cc(F)c(Oc3ccc(F)cc3)c(F)c2)[C@@H](C(=O)NO)C1 [Entry 9] and CCOC(=O)N1CCN(S(=O)(=O)c2cc(F)c(Oc3ccc(F)cc3)c(F)c2)[C@@H](C(=O)NO)C1 [Entry 13] cannot be ordered by IC50: < 50 nM for the first, < 50 nM for the second.

First: O=C(NO)[C@H]1CN(S(=O)(=O)Cc2ccncc2)CCN1S(=O)(=O)c1cc(F)c(Oc2ccc(Cl)cc2)c(F)c1 [Entry 34]
Second: O=C(NO)[C@H]1CN(S(=O)(=O)Cc2cc(Cl)cc(Cl)c2)CCN1S(=O)(=O)c1cc(F)c(Oc2ccc(Cl)cc2)c(F)c1 [Entry 61]
The IC50 of the first is lower: < 50 nM for the first, 50 to 1000 nM for the second. The first is the more potent here.

First: COCCOC(=O)N1CCN(S(=O)(=O)c2ccc(Oc3ccc4c(c3)CCCC4)nc2)[C@@H](C(=O)NO)C1 [Entry 64]
Second: COCCOC(=O)N1CCN(S(=O)(=O)c2ccc(Oc3ccc(F)cc3)nc2)[C@@H](C(=O)NO)C1 [Entry 65]
The IC50 of the first is lower: < 50 nM for the first, 50 to 1000 nM for the second. The first is the more potent here.

O=C(NO)[C@H]1CN(C(=O)c2ccncc2)CCN1S(=O)(=O)c1cc(F)c(Oc2ccc(Cl)cc2)c(F)c1 [Entry 42] and O=C(NO)[C@H]1CN(C(=O)Cc2cccnc2)CCN1S(=O)(=O)c1cc(F)c(Oc2ccc(Cl)cc2)c(F)c1 [Entry 47] cannot be ordered by IC50: < 50 nM for the first, < 50 nM for the second.

O=C(NO)[C@H]1CN(C(=O)NCCN2CCCC2)CCN1S(=O)(=O)c1cc(F)c(Oc2ccc(Cl)cc2)c(F)c1 [Entry 17] and O=C(NO)[C@H]1CN(C(=O)OCCN2CCCC2)CCN1S(=O)(=O)c1cc(F)c(Oc2ccc(Cl)cc2)c(F)c1 [Entry 18] cannot be ordered by IC50: < 50 nM for the first, < 50 nM for the second.

CN(C)c1ccc2c(S(=O)(=O)N3CCN(S(=O)(=O)c4cc(F)c(Oc5ccc(Cl)cc5)c(F)c4)[C@@H](C(=O)NO)C3)cccc2c1 [Entry 49] and CN(C)c1ccc2ccc(S(=O)(=O)N3CCN(S(=O)(=O)c4cc(F)c(Oc5ccc(Cl)cc5)c(F)c4)[C@@H](C(=O)NO)C3)cc2c1 [Entry 50] fall in the same range of IC50: 1000 to 20000 nM for the first, 1000 to 20000 nM for the second.

CN1CCN(CCS(=O)(=O)N2CCN(S(=O)(=O)c3cc(F)c(Oc4ccc(Cl)cc4)c(F)c3)[C@@H](C(=O)NO)C2)CC1 [Entry 55] and CCOC(=O)N1CCN(CCS(=O)(=O)N2CCN(S(=O)(=O)c3cc(F)c(Oc4ccc(Cl)cc4)c(F)c3)[C@@H](C(=O)NO)C2)CC1 [Entry 56] cannot be ordered by IC50: < 50 nM for the first, < 50 nM for the second.

O=C(NO)[C@H]1CN(S(=O)(=O)c2cc(F)c(O)c(F)c2)CCN1S(=O)(=O)c1cc(F)c(Oc2ccc(Cl)cc2)c(F)c1 [Entry 41] and O=C(NO)[C@H]1CN(S(=O)(=O)c2cccnc2O)CCN1S(=O)(=O)c1cc(F)c(Oc2ccc(Cl)cc2)c(F)c1 [Entry 45] cannot be ordered by IC50: < 50 nM for the first, < 50 nM for the second.

O=C(CN1CCOCC1)NC(=O)N1CCN(S(=O)(=O)c2cc(F)c(Oc3ccc(Cl)cc3)c(F)c2)[C@@H](C(=O)NO)C1 [Entry 46] and O=C(NO)[C@H]1CN(C(=O)C(=O)N2CCOCC2)CCN1S(=O)(=O)c1cc(F)c(Oc2ccc(Cl)cc2)c(F)c1 [Entry 31] cannot be ordered by IC50: < 50 nM for the first, < 50 nM for the second.

First: CNC(=O)CN1CCN(S(=O)(=O)c2cc(F)c(Oc3ccc(Cl)cc3)c(F)c2)[C@@H](C(=O)NO)C1 [Entry 19]
Second: O=C(O)CN1CCN(S(=O)(=O)c2cc(F)c(Oc3ccc(Cl)cc3)c(F)c2)[C@@H](C(=O)NO)C1 [Entry 63]
The IC50 of the first is lower: < 50 nM for the first, 50 to 1000 nM for the second. The first is the more potent here.

COCCOC(=O)N1CCN(S(=O)(=O)c2ccc(Oc3ccc(C#N)cc3)c(F)c2)[C@@H](C(=O)NO)C1 [Entry 5] and COCCOC(=O)N1CCN(S(=O)(=O)c2ccc(Oc3ccc(F)cc3)c(F)c2)[C@@H](C(=O)NO)C1 [Entry 3] cannot be ordered by IC50: < 50 nM for the first, < 50 nM for the second.

O=C(NO)[C@H]1CN(C(=O)CN2CCCCC2)CCN1S(=O)(=O)c1cc(F)c(Oc2ccc(Cl)cc2)c(F)c1 [Entry 26] and O=C(NO)[C@H]1CN(CC(=O)N2CCCC2)CCN1S(=O)(=O)c1cc(F)c(Oc2ccc(Cl)cc2)c(F)c1 [Entry 21] cannot be ordered by IC50: < 50 nM for the first, < 50 nM for the second.

O=C(NO)[C@H]1CN(C(=O)N2CCOCC2)CCN1S(=O)(=O)c1ccc(-c2cccc(F)c2)nc1 [Entry 58] and O=C(NO)[C@H]1CN(C(=O)N2CCOCC2)CCN1S(=O)(=O)c1ccc(Oc2ccc(F)cc2)cc1 [Entry 2] cannot be ordered by IC50: < 50 nM for the first, < 50 nM for the second.

O=C(NO)[C@H]1CNCCN1S(=O)(=O)c1cc(F)c(Oc2ccc(F)cc2)c(F)c1 [Entry 11] and CN1CCN(S(=O)(=O)c2cc(F)c(Oc3ccc(F)cc3)c(F)c2)[C@@H](C(=O)NO)C1 [Entry 14] fall in the same range of IC50: 50 to 1000 nM for the first, 50 to 1000 nM for the second.

Compared with C=CCN1CCN(S(=O)(=O)c2cc(F)c(Oc3ccc(Cl)cc3)c(F)c2)[C@@H](C(=O)NO)C1 [Entry 62], COCCN1CCN(S(=O)(=O)c2cc(F)c(Oc3ccc(Cl)cc3)c(F)c2)[C@@H](C(=O)NO)C1 [Entry 29] is lower in IC50: 50 to 1000 nM for the first, < 50 nM for the second. The second is the more potent here.

O=C(CCl)NC(=O)N1CCN(S(=O)(=O)c2cc(F)c(Oc3ccc(Cl)cc3)c(F)c2)[C@@H](C(=O)NO)C1 [Entry 33] and CS(=O)(=O)N1CCN(S(=O)(=O)c2cc(F)c(Oc3ccc(Cl)cc3)c(F)c2)[C@@H](C(=O)NO)C1 [Entry 28] cannot be ordered by IC50: < 50 nM for the first, < 50 nM for the second.

Compared with O=C(NO)[C@H]1CN(S(=O)(=O)CCN2CCOCC2)CCN1S(=O)(=O)c1cc(F)c(Oc2ccc(Cl)cc2)c(F)c1 [Entry 57], O=C(NO)[C@H]1CN(S(=O)(=O)CCN2CCCCC2)CCN1S(=O)(=O)c1cc(F)c(Oc2ccc(Cl)cc2)c(F)c1 [Entry 53] is lower in IC50: 50 to 1000 nM for the first, < 50 nM for the second. The second is the more potent here.

CCOC(=O)N1CCN(CC(=O)N2CCN(S(=O)(=O)c3cc(F)c(Oc4ccc(Cl)cc4)c(F)c3)[C@@H](C(=O)NO)C2)CC1 [Entry 23] and CN1CCN(CC(=O)N2CCN(S(=O)(=O)c3cc(F)c(Oc4ccc(Cl)cc4)c(F)c3)[C@@H](C(=O)NO)C2)CC1 [Entry 24] cannot be ordered by IC50: < 50 nM for the first, < 50 nM for the second.

O=C(NO)[C@H]1CN(C(=O)N2CCOCC2)CCN1S(=O)(=O)c1cc(F)c(Oc2ccc(Cl)cc2)c(F)c1 [Entry 30] and O=C(NO)[C@H]1CN(C(=O)N2CCOCC2)CCN1S(=O)(=O)c1cc(F)c(Oc2ccc(F)cc2)c(F)c1 [Entry 12] cannot be ordered by IC50: < 50 nM for the first, < 50 nM for the second.

CN(C)CCS(=O)(=O)N1CCN(S(=O)(=O)c2cc(F)c(Oc3ccc(Cl)cc3)c(F)c2)[C@@H](C(=O)NO)C1 [Entry 54] and CN(C)S(=O)(=O)N1CCN(S(=O)(=O)c2cc(F)c(Oc3ccc(Cl)cc3)c(F)c2)[C@@H](C(=O)NO)C1 [Entry 36] cannot be ordered by IC50: < 50 nM for the first, < 50 nM for the second.

Compared with O=C(NO)[C@H]1CN(C(=O)c2ccc(-c3ccccc3)cc2)CCN1S(=O)(=O)c1cc(F)c(Oc2ccc(Cl)cc2)c(F)c1 [Entry 51], O=C(NO)[C@H]1CN(C(=O)OCc2ccccc2)CCN1S(=O)(=O)c1cc(F)c(Oc2ccc(Cl)cc2)c(F)c1 [Entry 32] is lower in IC50: 50 to 1000 nM for the first, < 50 nM for the second. The second is the more potent here.

COCCOC(=O)N1CCN(S(=O)(=O)c2cc(F)c(Oc3ccccc3)c(F)c2)[C@@H](C(=O)NO)C1 [Entry 40] and COCCOC(=O)N1CCN(S(=O)(=O)c2cc(F)c(Oc3ccc(F)cc3)c(F)c2)[C@@H](C(=O)NO)C1 [Entry 10] cannot be ordered by IC50: < 50 nM for the first, < 50 nM for the second.

CN1CCN(C(=O)NS(=O)(=O)N2CCN(S(=O)(=O)c3cc(F)c(Oc4ccc(Cl)cc4)c(F)c3)[C@@H](C(=O)NO)C2)CC1 [Entry 39] and O=C(NO)[C@H]1CN(S(=O)(=O)NC(=O)N2CCCCC2)CCN1S(=O)(=O)c1cc(F)c(Oc2ccc(Cl)cc2)c(F)c1 [Entry 37] cannot be ordered by IC50: < 50 nM for the first, < 50 nM for the second.

CN1CCC(OC(=O)N2CCN(S(=O)(=O)c3cc(F)c(Oc4ccc(Cl)cc4)c(F)c3)[C@@H](C(=O)NO)C2)CC1 [Entry 22] and CN1CCN(C(=O)N2CCN(S(=O)(=O)c3cc(F)c(Oc4ccc(Cl)cc4)c(F)c3)[C@@H](C(=O)NO)C2)CC1 [Entry 16] cannot be ordered by IC50: < 50 nM for the first, < 50 nM for the second.

O=C(NO)[C@H]1CN(C(=O)C(=O)N2CCCCC2)CCN1S(=O)(=O)c1cc(F)c(Oc2ccc(Cl)cc2)c(F)c1 [Entry 35] and O=C(NO)[C@H]1CN(S(=O)(=O)NC(=O)N2CCOCC2)CCN1S(=O)(=O)c1cc(F)c(Oc2ccc(Cl)cc2)c(F)c1 [Entry 38] cannot be ordered by IC50: < 50 nM for the first, < 50 nM for the second.

CCCC(CCC)C(=O)N1CCN(S(=O)(=O)c2cc(F)c(Oc3ccc(Cl)cc3)c(F)c2)[C@@H](C(=O)NO)C1 [Entry 44] and CCCCCCC(=O)N1CCN(S(=O)(=O)c2cc(F)c(Oc3ccc(Cl)cc3)c(F)c2)[C@@H](C(=O)NO)C1 [Entry 43] cannot be ordered by IC50: < 50 nM for the first, < 50 nM for the second.

First: O=C(NO)[C@H]1CN(S(=O)(=O)c2cccc3cnccc23)CCN1S(=O)(=O)c1cc(F)c(Oc2ccc(Cl)cc2)c(F)c1 [Entry 48]
Second: CN(C)c1cccc2c(S(=O)(=O)N3CCN(S(=O)(=O)c4cc(F)c(Oc5ccc(Cl)cc5)c(F)c4)[C@@H](C(=O)NO)C3)cccc12 [Entry 60]
The IC50 of the first is lower: < 50 nM for the first, 50 to 1000 nM for the second.

COCCOC(=O)N1CCN(S(=O)(=O)c2ccc(Oc3ccc(Cl)cc3)c(F)c2)[C@@H](C(=O)NO)C1 [Entry 4] and COCCOC(=O)N1CCN(S(=O)(=O)c2ccc(-c3cccc(F)c3)nc2)[C@@H](C(=O)NO)C1 [Entry 66] cannot be ordered by IC50: < 50 nM for the first, < 50 nM for the second.

CN(C)C(=O)CN1CCN(S(=O)(=O)c2cc(F)c(Oc3ccc(Cl)cc3)c(F)c2)[C@@H](C(=O)NO)C1 [Entry 20] was tested, and the IC50 was < 50 nM.

Reference: patent US20110082114A1, “Methods of Treating Aneurysmal Dilatation, Blood Vessel Wall Weakness and Specifically Abdominal Aortic and Thoracic Aneurysm Using Matrix Metalloprotease-2 Inhibitors” (SYMPHONY EVOLUTION, INC., priority 2009, published 2011)
